Laboratory results reported in the NIST ThermoML archive (doi:10.1021/je0340755).

Assay: xn = mol fraction of the nth substance listed
Settings: 101.3 kPa, Liquid; for viscosity: Capillary tube (Ostwald / Ubbelohde) method

CCC(O)CO (stereo not given) [1,2-butanediol] + O
Settings | mass density, 318.15 K [kg/m3] | mass density, 328.15 K [kg/m3] | mass density, 338.15 K [kg/m3] | speed of sound, 318.15 K [m/s] | speed of sound, 328.15 K [m/s] | speed of sound, 338.15 K [m/s] | viscosity, 328.15 K [mPa·s] | viscosity, 338.15 K [mPa·s]
x2 = 0.0471 | – | 976.76 | 968.75 | – | 1381.6 | 1365.8 | 10.36 | 6.896
x2 = 0.1478 | – | 978.45 | 970.35 | – | 1392.6 | 1376.1 | 9.126 | 6.061
x2 = 0.2481 | – | 980.12 | 971.96 | – | 1404 | 1387.3 | 7.863 | 5.201
x2 = 0.3491 | – | 982.09 | 973.85 | – | 1421.6 | 1402.7 | 6.626 | 4.361
x2 = 0.443 | – | 984.39 | 976.07 | – | 1440 | 1420.1 | 5.547 | 3.638
x2 = 0.4971 | – | 985.9 | 977.53 | 1474.1 | 1450.7 | 1430.2 | 4.962 | 3.251
x2 = 0.5552 | 995.8 | 987.59 | 979.18 | 1485.9 | 1464.3 | 1443.6 | 4.363 | 2.859
x2 = 0.6494 | 998.48 | 990.29 | 981.87 | 1510 | 1490.7 | 1468.5 | 3.447 | 2.268
x2 = 0.7491 | 1001.03 | 993 | 984.71 | 1553.8 | 1532.6 | 1507.6 | 2.533 | 1.689
x2 = 0.8547 | 1003.2 | 995.64 | 987.72 | 1614.7 | 1592.7 | 1565.4 | 1.615 | 1.114
x2 = 0.9081 | 1003 | 995.96 | 988.49 | 1630.6 | 1611.9 | 1587.3 | 1.177 | 0.843
x2 = 0.9144 | 1002.81 | 995.86 | 988.47 | 1630.5 | 1612.7 | 1588.5 | 1.127 | 0.812
x2 = 0.9255 | 1002.34 | 995.56 | 988.32 | 1629 | 1612.9 | 1590.4 | 1.04 | 0.759
x2 = 0.9353 | 1001.75 | 995.14 | 988.06 | 1626 | 1611.8 | 1591 | 0.964 | 0.713
x2 = 0.9543 | 999.98 | 993.79 | 987.1 | 1614.7 | 1604.2 | 1588.9 | 0.821 | 0.626
x2 = 0.9562 | 999.74 | 993.61 | 986.96 | 1613.2 | 1603.4 | 1588.1 | 0.807 | 0.618
x2 = 0.9598 | 999.27 | 993.23 | 986.68 | 1610 | 1601.5 | 1587.6 | 0.781 | 0.602
x2 = 0.97 | 997.69 | 991.96 | 985.68 | 1599 | 1594 | 1583.6 | 0.707 | 0.558
x2 = 0.9806 | 995.59 | 990.23 | 984.29 | 1584.6 | 1583.2 | 1577.1 | 0.633 | 0.514
x2 = 0.9902 | 993.21 | 988.23 | 982.66 | 1568.4 | 1571.2 | 1570.2 | 0.568 | 0.476
x2 = 0.9923 | 992.62 | 987.73 | 982.25 | 1564.4 | 1568.9 | 1568 | 0.554 | 0.467
x2 = 0.9956 | 991.63 | 986.9 | 981.55 | 1557.9 | 1563.4 | 1564.9 | 0.532 | 0.455
